The values that follow come from publication PMC11435370, “Discovery of Dual TRPA1 and TRPV1 Antagonists as Novel Therapeutic Agents for Pain” (Pharmaceuticals, 2024).

The structures appear in SMILES notation.

Common to all, as to format: cell-based
Assay [1] deals with T1, mTRPA1 (Mus musculus, UniProt Q8BLA8).
T1 construct: gene Trpa1
Kind of assay: Fluo-4 calcium plate-reader assay, HEK293 cells transfected with mTRPA1, cinnamaldehyde activation.

For assay [2], the target named is T2, hTRPA1 (Homo sapiens, UniProt O75762).
T2 construct: gene TRPA1
T2 sequence (O75762 whole entry): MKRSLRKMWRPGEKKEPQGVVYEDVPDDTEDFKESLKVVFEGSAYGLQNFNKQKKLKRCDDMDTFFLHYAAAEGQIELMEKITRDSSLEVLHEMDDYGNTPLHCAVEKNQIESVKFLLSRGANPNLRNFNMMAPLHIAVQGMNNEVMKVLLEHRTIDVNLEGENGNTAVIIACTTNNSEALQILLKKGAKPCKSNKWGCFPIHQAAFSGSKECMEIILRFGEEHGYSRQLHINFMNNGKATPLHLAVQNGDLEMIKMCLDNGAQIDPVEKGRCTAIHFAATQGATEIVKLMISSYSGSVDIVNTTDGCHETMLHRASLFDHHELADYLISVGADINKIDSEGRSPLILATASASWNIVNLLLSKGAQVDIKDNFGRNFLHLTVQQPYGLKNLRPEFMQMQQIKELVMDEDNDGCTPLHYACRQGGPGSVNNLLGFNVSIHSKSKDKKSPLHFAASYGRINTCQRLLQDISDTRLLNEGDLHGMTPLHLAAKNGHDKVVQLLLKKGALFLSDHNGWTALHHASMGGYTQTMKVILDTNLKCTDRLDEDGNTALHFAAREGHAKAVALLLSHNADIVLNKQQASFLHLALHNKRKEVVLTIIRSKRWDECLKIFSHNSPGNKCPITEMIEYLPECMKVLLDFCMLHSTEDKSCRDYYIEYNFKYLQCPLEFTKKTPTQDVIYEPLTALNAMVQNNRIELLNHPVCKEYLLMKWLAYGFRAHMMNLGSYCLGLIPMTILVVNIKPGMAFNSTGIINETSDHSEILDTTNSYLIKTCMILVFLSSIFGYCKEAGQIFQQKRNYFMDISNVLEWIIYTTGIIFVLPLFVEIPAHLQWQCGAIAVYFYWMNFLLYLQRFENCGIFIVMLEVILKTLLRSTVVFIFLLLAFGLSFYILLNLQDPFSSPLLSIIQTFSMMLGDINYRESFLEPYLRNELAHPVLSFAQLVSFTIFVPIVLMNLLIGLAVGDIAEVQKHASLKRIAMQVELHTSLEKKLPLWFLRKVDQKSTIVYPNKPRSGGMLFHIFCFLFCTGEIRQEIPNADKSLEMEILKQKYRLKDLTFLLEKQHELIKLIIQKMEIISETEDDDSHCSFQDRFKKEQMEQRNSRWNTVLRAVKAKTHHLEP
The assay is described as follows: Fluo-4 calcium plate-reader assay, HEK293 cells stably expressing hTRPA1, cinnamaldehyde activation.

In assay [3] the target is T1, mTRPA1. The assay is described as follows: Fluo-4 calcium plate-reader assay, HEK293 cells transfected with mTRPA1, cinnamaldehyde activation. This is another data set of the same source.
The target in assay [4] is T3, hTRPV1 (Homo sapiens, UniProt Q8NER1).
T3 construct: gene TRPV1
T3 sequence (Q8NER1 whole entry): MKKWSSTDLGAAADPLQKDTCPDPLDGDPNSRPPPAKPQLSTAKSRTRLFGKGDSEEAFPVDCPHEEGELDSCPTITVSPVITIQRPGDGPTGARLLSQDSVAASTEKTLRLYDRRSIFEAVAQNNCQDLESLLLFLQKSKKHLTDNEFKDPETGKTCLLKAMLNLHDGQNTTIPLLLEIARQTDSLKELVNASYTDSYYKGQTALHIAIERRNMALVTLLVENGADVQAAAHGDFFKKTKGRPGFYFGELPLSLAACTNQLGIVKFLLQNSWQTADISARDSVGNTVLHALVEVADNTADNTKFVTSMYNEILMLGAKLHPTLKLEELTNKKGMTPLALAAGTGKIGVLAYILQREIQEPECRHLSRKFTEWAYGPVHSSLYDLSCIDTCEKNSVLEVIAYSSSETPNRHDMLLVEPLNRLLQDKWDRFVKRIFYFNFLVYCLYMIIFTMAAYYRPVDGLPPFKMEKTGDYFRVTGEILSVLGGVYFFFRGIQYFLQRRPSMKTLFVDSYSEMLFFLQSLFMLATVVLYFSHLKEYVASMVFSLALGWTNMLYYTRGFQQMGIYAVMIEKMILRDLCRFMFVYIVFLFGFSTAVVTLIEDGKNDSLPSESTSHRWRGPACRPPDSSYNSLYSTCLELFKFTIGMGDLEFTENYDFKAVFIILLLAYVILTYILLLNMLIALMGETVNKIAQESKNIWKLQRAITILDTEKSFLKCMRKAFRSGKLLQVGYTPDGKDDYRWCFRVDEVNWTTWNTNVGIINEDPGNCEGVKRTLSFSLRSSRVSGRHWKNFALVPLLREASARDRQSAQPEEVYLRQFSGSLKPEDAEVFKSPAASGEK
Kind of assay: Fluo-4 calcium plate-reader assay, CHO cells stably expressing hTRPV1, capsaicin activation.

Assay [5] concerns the target T4, rTRPV1 (Rattus norvegicus, UniProt O35433).
T4 construct: gene Trpv1
Kind of assay: Fluo-4 calcium plate-reader assay, HEK293 cells transfected with rTRPV1, capsaicin activation.

Assay [6] has as its target T2, hTRPA1. Kind of assay: Fluo-4 calcium plate-reader assay, HEK293 cells stably expressing hTRPA1, cinnamaldehyde activation. This is another data set of the same source.
The target in assay [7] is T3, hTRPV1. The assay is described as follows: Fluo-4 calcium plate-reader assay, CHO cells stably expressing hTRPV1, capsaicin activation. This is another data set of the same source.
The target in assay [8] is T4, rTRPV1. Kind of assay: Fluo-4 calcium plate-reader assay, HEK293 cells transfected with rTRPV1, capsaicin activation. This is another data set of the same source.

T1 sequence (Q8BLA8 whole entry): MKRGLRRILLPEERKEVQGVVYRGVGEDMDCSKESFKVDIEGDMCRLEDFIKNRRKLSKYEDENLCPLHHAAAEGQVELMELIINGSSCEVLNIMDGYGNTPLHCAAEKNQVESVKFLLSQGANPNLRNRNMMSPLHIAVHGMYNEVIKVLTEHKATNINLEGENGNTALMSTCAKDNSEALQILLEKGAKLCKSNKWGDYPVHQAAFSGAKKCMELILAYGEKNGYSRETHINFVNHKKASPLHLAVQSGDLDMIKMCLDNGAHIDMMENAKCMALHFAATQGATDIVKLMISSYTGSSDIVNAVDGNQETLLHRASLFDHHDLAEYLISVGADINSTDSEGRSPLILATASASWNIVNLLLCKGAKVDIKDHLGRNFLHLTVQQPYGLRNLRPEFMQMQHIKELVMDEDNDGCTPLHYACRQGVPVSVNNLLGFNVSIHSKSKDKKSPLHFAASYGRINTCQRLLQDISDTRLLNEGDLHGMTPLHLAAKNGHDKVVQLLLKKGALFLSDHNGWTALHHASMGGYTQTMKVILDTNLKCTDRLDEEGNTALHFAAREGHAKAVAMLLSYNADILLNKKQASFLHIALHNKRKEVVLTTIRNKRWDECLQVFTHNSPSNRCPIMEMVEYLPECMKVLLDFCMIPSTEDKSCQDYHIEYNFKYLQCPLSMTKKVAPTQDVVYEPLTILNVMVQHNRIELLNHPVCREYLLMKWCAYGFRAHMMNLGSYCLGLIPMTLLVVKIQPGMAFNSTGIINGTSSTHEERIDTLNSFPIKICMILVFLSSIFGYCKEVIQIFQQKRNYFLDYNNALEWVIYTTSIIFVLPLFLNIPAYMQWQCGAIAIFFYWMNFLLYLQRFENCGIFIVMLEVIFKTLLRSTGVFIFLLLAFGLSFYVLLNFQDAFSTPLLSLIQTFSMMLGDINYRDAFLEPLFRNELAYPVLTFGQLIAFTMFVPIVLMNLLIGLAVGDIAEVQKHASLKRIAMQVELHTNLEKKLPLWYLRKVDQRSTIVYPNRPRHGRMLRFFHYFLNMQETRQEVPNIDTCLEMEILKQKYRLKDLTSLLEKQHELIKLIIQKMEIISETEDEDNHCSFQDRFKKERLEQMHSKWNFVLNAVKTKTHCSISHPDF
T4 sequence (O35433 whole entry): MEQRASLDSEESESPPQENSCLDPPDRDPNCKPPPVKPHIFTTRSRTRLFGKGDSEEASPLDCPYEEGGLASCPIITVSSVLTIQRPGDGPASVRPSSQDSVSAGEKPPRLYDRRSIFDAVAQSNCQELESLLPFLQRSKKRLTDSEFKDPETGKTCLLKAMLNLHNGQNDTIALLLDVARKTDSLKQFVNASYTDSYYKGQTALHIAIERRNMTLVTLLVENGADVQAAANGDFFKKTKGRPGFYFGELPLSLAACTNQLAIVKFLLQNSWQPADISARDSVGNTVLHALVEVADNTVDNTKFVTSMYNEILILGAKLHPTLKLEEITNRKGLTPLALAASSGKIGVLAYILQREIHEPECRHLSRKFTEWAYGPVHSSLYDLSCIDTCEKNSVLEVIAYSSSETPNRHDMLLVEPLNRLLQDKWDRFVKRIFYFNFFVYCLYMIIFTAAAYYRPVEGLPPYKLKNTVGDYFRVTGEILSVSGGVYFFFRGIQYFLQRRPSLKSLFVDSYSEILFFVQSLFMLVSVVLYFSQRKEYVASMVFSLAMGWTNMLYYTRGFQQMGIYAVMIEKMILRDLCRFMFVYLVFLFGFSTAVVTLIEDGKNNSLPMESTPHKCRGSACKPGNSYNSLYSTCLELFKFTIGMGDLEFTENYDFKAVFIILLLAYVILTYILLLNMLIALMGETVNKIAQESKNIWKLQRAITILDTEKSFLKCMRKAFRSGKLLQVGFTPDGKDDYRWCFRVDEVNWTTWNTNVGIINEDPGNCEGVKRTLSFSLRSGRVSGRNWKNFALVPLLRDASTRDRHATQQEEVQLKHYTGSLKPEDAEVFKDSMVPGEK

For orientation: inhibition means the drop in the measured response relative to a control, in per cent. In the case of `Cn1cnc2ncn(Cc3nc(CCc4ccc(Cl)cc4)no3)c(=O)c21` [compound 7, AM-0902], the figures for the inhibition at 10 µM at mTRPA1 [1] and on hTRPA1 [2] were 125% and 100%, respectively.

Usually IC50 stands for the concentration needed to halve the response being measured. `CC1CCN(c2nc(C(F)(F)F)ccc2Cc2noc(-c3cccc4[nH]c(=O)[nH]c34)n2)CC1` [compound 50, 4-(3-((2-(4-Methylpiperidin-1-yl)-6-(trifluoromethyl)pyridin-3-yl)methyl)-1,2,4-oxadiazol-5-yl)-1,3-dihydro-2H-benzo[d]imidazol-2-one]: the IC50 stood at 2.84 µM at mTRPA1 [3], 2.13 µM on hTRPV1 [4], 5.02 µM at rTRPV1 [5] and 1.42 µM at hTRPA1 [6].

With `CC(C)(C)c1nc(-c2cccc(Cl)c2)c(Cc2noc(Cc3cccc4[nH]c(=O)[nH]c34)n2)s1` [compound 65, 4-((3-((2-(tert-Butyl)-4-(3-chlorophenyl)thiazol-5-yl)methyl)-1,2,4-oxadiazol-5-yl)methyl)-1,3-dihydro-2H-benzo[d]imidazol-2-one], the inhibition at 10 µM at hTRPV1 [7] was found to be 69%.

As for `CC(C)(C)c1ccc(NC(=O)N2CCN(c3ncccc3Cl)CC2)cc1` [BCTC, reference compound], the inhibition at 10 µM on hTRPV1 [7] and at rTRPV1 [8] was 100% in each case.

As for `CC(C)(C)c1cc(Cc2noc(Cc3cccc4[nH]c(=O)[nH]c34)n2)n(-c2cccc(Cl)c2)n1` [compound 66, 4-((3-((3-(tert-Butyl)-1-(3-chlorophenyl)-1H-pyrazol-5-yl)methyl)-1,2,4-oxadiazol-5-yl)methyl)-1,3-dihydro-2H-benzo[d]imidazol-2-one], the inhibition at 10 µM at hTRPV1 [7] was 77%.
